In paper PMC8011784, “Chronic peptide-based GIP receptor inhibition exhibits modest glucose metabolic changes in mice when administered either alone or combined with GLP-1 agonism” (PLoS ONE, 2021):

Tested on: DIO mice
Assay: Chronic GIPA-2 study: insulin tolerance test (ITT) in DIO mice
Assay type: in vivo, mouse
Settings: day 24; insulin 0.5 U/kg ip one hour after daily dose; liraglutide 0.2 mg/kg SC, GIPA-2 10 mg/kg SC; n = 10
Procedure: For studying the chronic effects of GIPA-2, male C57BL/6JRj mice (n = 40) were fed a HFD (SSNIFF® diet #12492) for 43 weeks. DIO mice were randomized (n = 10 per group) based on baseline blood glucose and body weight. Liraglutide was dissolved in PBS plus 0.1% BSA (Vehicle1) and GIPA-2 in PBS (vehicle 2). Mice received one of the following four treatments daily for 28 days while still maintained on HFD: (1) vehicle 1 (SC) and vehicle 2 (SC); (2) 0.2 mg/kg liraglutide (SC) and vehicle 2; (3) vehicle 1 (SC) and 10 mg/kg GIPA-2 (SC); and (4) 0.2 mg/kg liraglutide (SC) plus 10 mg/kg GIPA-2 (SC). […] Fasted (4 hrs) blood glucose and insulin were measured on study day -4, 10 and 26. […] Blood glucose was measured before their daily dosing and at 0, 15, 30 60, 120, 180 and 240 min after glucose administration. […] Blood glucose was measured before their daily dosing and at 0, 15, 30 60, 120, 180 min after glucose administration. […]
Fig 3 Effects of GIPA-1 and GIPA-2 on oral glucose tolerance and insulin responses in DIO mice. […] Statistical analysis was calculated using two-way ANOVA with Tukey’s post-hoc test and one-way ANOVA with Dunnett’s post-hoc test. *: p< 0.05, **: p < 0.01, ***: p < 0.001, ****: p<0.0001 compared to vehicle.

liraglutide
insulin sensitivity (ITT): improved insulin sensitivity produced by liraglutide
